Source: PubChem BioAssay AID330 (DTP/NCI, 2004)
“And” between values parts separate entries of the source, which are not always exact repeats. Equal entries are not always repeated. Inconclusive results and toxic doses are left out. Peptide text beside a SMILES is read from it. * marks the point of attachment. Boc = CC(C)(C)OC(=O)*; NHNH2 = NN*

System: P388 leukemia ip, CD2F1 mice, survival T/C
Assay: NCI In Vivo Anticancer Drug Screen. Data for tumor model P388 Leukemia (intraperitoneal) in CD2F1 (CDF1) mice
Settings: endpoint: median survival time, higher = longer survival
Summary of the method: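 Mice carrying the transplanted tumor received test compound or vehicle. Survival was recorded in each group, and the value is the treated-group measurement divided by that of the vehicle-treated control group.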

[1] = dose: 50.0 mg/kg/injection, schedule: Q01DX009 (ip), vehicle: saline with Tween-80
[2] = dose: 100.0 mg/kg/injection, schedule: Q01DX009 (ip), vehicle: saline with Tween-80
[3] = dose: 50.0 mg/kg/injection, schedule: Q01DX005 (ip), vehicle: saline with Tween-80
[4] = dose: 100.0 mg/kg/injection, schedule: Q01DX005 (ip), vehicle: saline with Tween-80
[5] = dose: 50.0 mg/kg/injection, schedule: Q01DX005 (ip), vehicle: Klucel (hydroxypropylcellulose) (HPC)
[6] = dose: 100.0 mg/kg/injection, schedule: Q01DX005 (ip), vehicle: Klucel (hydroxypropylcellulose) (HPC)

In the case of CC1=C(O)CC(/C(C)=C/Cl)OC1=O (stereo unspecified), the T/C (dose: 100.0 mg/kg/injection, schedule: Q04DX002 (ip), vehicle: Klucel (hydroxypropylcellulose) (HPC)) is reported as 103 % of control, the T/C (dose: 200.0 mg/kg/injection, schedule: Q04DX002 (ip), vehicle: Klucel (hydroxypropylcellulose) (HPC)) is reported as 107 % of control and the T/C (dose: 400.0 mg/kg/injection, schedule: Q04DX002 (ip), vehicle: Klucel (hydroxypropylcellulose) (HPC)) is reported as 102 % of control.
For FC(F)(F)C1(C(F)(F)F)CC2COc3ccccc3C2=N1 (stereo unspecified), the T/C (dose: 50.0 mg/kg/injection, schedule: Q04DX002 (ip), vehicle: suspension in saline) was 100 % of control, the T/C (dose: 100.0 mg/kg/injection, schedule: Q04DX002 (ip), vehicle: suspension in saline) was 99 % of control and the T/C (dose: 200.0 mg/kg/injection, schedule: Q04DX002 (ip), vehicle: suspension in saline) was 100 % of control.
CCC(C)C(NC(=O)C(Cc1c[nH]c2ccccc12)NC(=O)OC(C)(C)C)C(=O)NN (stereo not drawn) (Boc-Trp-Ile-NHNH2; configuration not given here) was tested, and the T/C (dose: 12.5 mg/kg/injection, schedule: Q01DX009 (ip), vehicle: other) was 97 % of control, the T/C (dose: 25.0 mg/kg/injection, schedule: Q01DX009 (ip), vehicle: other) was 91 % of control and the T/C (dose: 50.0 mg/kg/injection, schedule: Q01DX009 (ip), vehicle: other) was 87 % of control. For the same compound, the T/C (dose: 100.0 mg/kg/injection, schedule: Q01DX009 (ip), vehicle: other) was 94 % of control and the T/C (dose: 200.0 mg/kg/injection, schedule: Q01DX009 (ip), vehicle: other) was 100 % of control.
For NCc1ccc(Cc2ccc(CN)cc2)cc1, the T/C [1] was 100 % of control and the T/C [2] was 100 % of control.
With CCOc1cccc(/C=N\Nc2nc(=O)cc(C(=O)OC)s2)c1O the T/C [3] was 97 % of control, the T/C [4] was 104 % of control and the T/C (dose: 200.0 mg/kg/injection, schedule: Q01DX005 (ip), vehicle: saline with Tween-80) was 107 % of control.
For O=C1C=C(Cl)C(=O)C2=C1CCCC2, the T/C (dose: 6.25 mg/kg/injection, schedule: Q04DX002 (ip), vehicle: saline with Tween-80) was 97 % of control.
O=C(Nc1ccc(Cc2ccc(NC(=O)C34CC5CC(CC(C5)C3)C4)cc2)cc1)C12CC3CC(CC(C3)C1)C2 was tested, and the T/C [3] was 88 % of control and the T/C [4] was 88 % of control.
With C/C(=C\COc1cc(O)c2c(c1)C(=O)c1cc(C)cc(O)c1C2=O)CCC1OC1(C)C (stereo unspecified) the T/C (dose: 2.5 mg/kg/injection, schedule: Q01DX005 (ip), vehicle: Klucel (hydroxypropylcellulose) (HPC)) was 98 % of control, the T/C (dose: 5.0 mg/kg/injection, schedule: Q01DX005 (ip), vehicle: Klucel (hydroxypropylcellulose) (HPC)) was 93 % of control and the T/C (dose: 10.0 mg/kg/injection, schedule: Q01DX005 (ip), vehicle: Klucel (hydroxypropylcellulose) (HPC)) was 90 % of control. The T/C (dose: 20.0 mg/kg/injection, schedule: Q01DX005 (ip), vehicle: Klucel (hydroxypropylcellulose) (HPC)) was 88 % of control.
In the case of CCOC(=O)C(F)C(Br)C(=O)OCC (stereo unspecified), the T/C (dose: 25.0 mg/kg/injection, schedule: Q01DX009 (ip), vehicle: saline with Tween-80) is reported as 105 % of control and 120 % of control, the T/C [1] is reported as 117 % of control and the T/C [2] is reported as 123 % of control.
CN(C)C1c2cc(Cl)ccc2-c2c(Cl)cc(Cl)cc21 (stereo unspecified) was tested, and the T/C [5] was 100 % of control and 91 % of control, the T/C [6] was 96 % of control and the T/C (dose: 200.0 mg/kg/injection, schedule: Q01DX005 (ip), vehicle: Klucel (hydroxypropylcellulose) (HPC)) was 91 % of control and 92 % of control.
CCOc1ccc2nc3cc(I)ccc3c(N)c2c1 was tested, and the T/C (dose: 7.5 mg/kg/injection, schedule: Q01DX005 (ip), vehicle: saline with Tween-80) was 102 % of control, the T/C (dose: 15.0 mg/kg/injection, schedule: Q01DX005 (ip), vehicle: saline with Tween-80) was 100 % of control and the T/C (dose: 30.0 mg/kg/injection, schedule: Q01DX005 (ip), vehicle: saline with Tween-80) was 112 % of control.
Clc1ccc2oc(N3CCOCC3)nc2c1 was tested, and the T/C (dose: 60.0 mg/kg/injection, schedule: Q01DX005 (ip), vehicle: saline with Tween-80) was 103 % of control, the T/C (dose: 120.0 mg/kg/injection, schedule: Q01DX005 (ip), vehicle: saline with Tween-80) was 96 % of control and the T/C (dose: 240.0 mg/kg/injection, schedule: Q01DX005 (ip), vehicle: saline with Tween-80) was 87 % of control.
CCCCCC(=O)NC1C(O)OC(CO)C(O)C1O (stereo unspecified) was tested, and the T/C [5] was 106 % of control and the T/C [6] was 97 % of control.
For CCCCCCCCCCCCCOC(=O)CC(C(=O)OCCCCCCCCCCCCC)S(=O)(=O)O (stereo unspecified), the T/C (dose: 50.0 mg/kg/injection, schedule: Q01DX009 (ip), vehicle: Klucel (hydroxypropylcellulose) (HPC)) was 99 % of control and the T/C (dose: 100.0 mg/kg/injection, schedule: Q01DX009 (ip), vehicle: Klucel (hydroxypropylcellulose) (HPC)) was 95 % of control.
In the case of CCCCCCCCCCCCCCCCSC1=CC(=O)C(OC)=C(OC)C1=O, the T/C (dose: 2.0 mg/kg/injection, schedule: Q01DX009 (ip), vehicle: Klucel (hydroxypropylcellulose) (HPC)) is reported as 97 % of control, the T/C (dose: 8.0 mg/kg/injection, schedule: Q01DX009 (ip), vehicle: Klucel (hydroxypropylcellulose) (HPC)) is reported as 98 % of control and the T/C (dose: 16.0 mg/kg/injection, schedule: Q01DX009 (ip), vehicle: Klucel (hydroxypropylcellulose) (HPC)) is reported as 100 % of control. The T/C (dose: 32.0 mg/kg/injection, schedule: Q01DX009 (ip), vehicle: Klucel (hydroxypropylcellulose) (HPC)) was 105 % of control.
For OC1OCC(Cc2ccc3c(c2)OCO3)C1Cc1ccc2c(c1)OCO2 (stereo unspecified), the T/C (dose: 100.0 mg/kg/injection, schedule: Q04DX003 (ip), vehicle: other) was 95 % of control, the T/C (dose: 200.0 mg/kg/injection, schedule: Q04DX003 (ip), vehicle: other) was 90 % of control and the T/C (dose: 400.0 mg/kg/injection, schedule: Q04DX003 (ip), vehicle: other) was 90 % of control.
